# In patent US9409866B2, “Pyridine-2-amides useful as CB2 agonists” (Hoffmann-La Roche Inc., priority 2012, dated 2016):
# Where two headings read alike, the source gives them in different places.
# Assays:
# human CB2 receptors = human CB2 receptors (Homo sapiens (Human), UniProt P34972); assay: functional cAMP assay, CHO cells expressing human CB2; format: cell-based
# In short: (§1)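 CHO cells with human CB1 or CB2 were switched to Krebs Ringer bicarbonate buffer with 1 mM IBMX for 30 min at 30 °C, then given compound for 30 min at 30 °C. cAMP was measured by time-resolved FRET against a cAMP standard curve, and EC50 values were calculated.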
# human CB1 receptors = human CB1 receptors (Homo sapiens (Human), UniProt P21554); assay: functional cAMP assay, CHO cells expressing human CB1; format: cell-based
# In short: as §1
# [1] = functional cAMP assay, CHO cells expressing human CB1; read-out: Human CB1 EC50
# [2] = Human CB1 EC50 (uM), functional cAMP assay, CHO cells expressing human CB1
# [3] = read-out: Human CB1 EC50; functional cAMP assay, CHO cells expressing human CB1
# Chain of human CB1 receptors (P21554 whole entry): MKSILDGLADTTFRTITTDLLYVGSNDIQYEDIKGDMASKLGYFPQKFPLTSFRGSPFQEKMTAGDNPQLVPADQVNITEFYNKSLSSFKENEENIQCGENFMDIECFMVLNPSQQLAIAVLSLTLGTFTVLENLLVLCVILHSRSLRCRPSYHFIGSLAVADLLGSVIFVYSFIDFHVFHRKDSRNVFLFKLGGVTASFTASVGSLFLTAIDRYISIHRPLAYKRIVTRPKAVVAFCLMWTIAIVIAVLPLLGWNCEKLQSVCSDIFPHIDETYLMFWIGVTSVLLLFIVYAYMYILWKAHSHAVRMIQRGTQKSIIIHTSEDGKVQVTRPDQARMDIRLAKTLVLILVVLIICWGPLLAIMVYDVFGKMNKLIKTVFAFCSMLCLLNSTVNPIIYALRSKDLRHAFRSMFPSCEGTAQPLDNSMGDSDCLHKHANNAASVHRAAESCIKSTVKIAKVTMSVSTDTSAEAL
# Chain of human CB2 receptors (P34972 whole entry): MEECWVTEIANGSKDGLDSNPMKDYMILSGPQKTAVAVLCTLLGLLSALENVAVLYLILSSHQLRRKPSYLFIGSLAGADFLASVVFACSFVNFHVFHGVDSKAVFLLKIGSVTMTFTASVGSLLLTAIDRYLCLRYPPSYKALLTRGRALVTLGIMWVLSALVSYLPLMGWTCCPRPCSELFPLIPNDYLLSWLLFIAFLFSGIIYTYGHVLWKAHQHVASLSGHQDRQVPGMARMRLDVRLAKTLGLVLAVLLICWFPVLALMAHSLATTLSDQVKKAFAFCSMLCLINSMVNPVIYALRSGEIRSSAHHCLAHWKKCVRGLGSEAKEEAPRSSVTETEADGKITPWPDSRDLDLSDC
Structure (SMILES),EC50 (human CB2 receptors; read-out: Human CB2 EC50) [µM],EC50 (human CB1 receptors; [1]) [µM],EC50 (human CB2 receptors; Human CB2 EC50 (uM)) [µM],EC50 (human CB1 receptors; [2]) [µM],EC50 (human CB1 receptors; [3]) [µM]
"C[C@H](Oc1cc(C(=O)NC(C(=O)N2CC(F)(F)C2)C(C)(C)C)ncc1C1CC1)C(F)(F)F (stereo partly drawn) [Example 203, 5-cyclopropyl-N-[1-(3,3-difluoroazetidin-1-yl)-3,3-dimethyl-1-oxobutan-2-yl]-4-[(2S)-1,1,1-trifluoropropan-2-yl]oxypyridine-2-carboxamide]",0.0051,> 10,–,–,–
"NC(=O)CC1(NC(=O)c2cc(OCC(F)(F)F)c(N3CC(F)(F)C3)cn2)COC1 [Example 223, N-[3-(2-amino-2-oxoethyl)oxetan-3-yl]-5-(3,3-difluoroazetidin-1-yl)-4-(2,2,2-trifluoroethoxy)pyridine-2-carboxamide]",0.166,> 10,–,–,–
"Cc1nc([C@](C)(NC(=O)c2cc(OCC(F)(F)F)c(N3CC(F)(F)C3)cn2)C2CC2)no1 (single isomer, unassigned; enantiomer a) [Example 87, 5-(3,3-Difluoro-azetidin-1-yl)-4-(2,2,2-trifluoro-ethoxy)-pyridine-2-carboxylic acid [1-cyclopropyl-1-(5-methyl-[1,2,4]oxadiazol-3-yl)-ethyl]-amide (enantiomer A)]",–,–,0.0568,> 10,–
"CC1(C(NC(=O)c2cc(OCC(F)(F)F)c(C3CC3)cn2)C(N)=O)COC1 (single isomer, unassigned) [Example 268, N-[2-amino-1-(3-methyloxetan-3-yl)-2-oxoethyl]-5-cyclopropyl-4-(2,2,2-trifluoroethoxy)pyridine-2-carboxamide]",–,–,0.225,> 10,–
"C[C@H](Oc1cc(C(=O)NC2(CC(N)=O)COC2)ncc1C1CC1)C(F)(F)F [Example 64, 5-Cyclopropyl-4-((S)-2,2,2-trifluoro-1-methyl-ethoxy)-pyridine-2-carboxylic acid (3-carbamoylmethyl-oxetan-3-yl)-amide]",0.515,> 10,–,–,–
"C[C@H](Oc1cc(C(=O)NC(C(N)=O)C(C)(C)C)ncc1C1CC1)C(F)(F)F (stereo partly drawn) [Example 199, N-(1-amino-3,3-dimethyl-1-oxobutan-2-yl)-5-cyclopropyl-4-[(2S)-1,1,1-trifluoropropan-2-yl]oxypyridine-2-carboxamide]",0.0078,> 10,–,–,–
"Cc1nc(C(C)(CC2CC2)NC(=O)c2cc(OCC(F)F)c(C3CC3)cn2)no1 (single isomer, unassigned) [Example 155, 5-cyclopropyl-N-[1-cyclopropyl-2-(5-methyl-1,2,4-oxadiazol-3-yl)propan-2-yl]-4-(2,2-difluoroethoxy)pyridine-2-carboxamide]",–,–,0.0058,–,> 10
"CC(CC(N)=O)(NC(=O)c1cc(OCCF)c(C2CC2)cn1)C1CC1 (single isomer, unassigned) [Example 271, N-[4-amino-2-cyclopropyl-4-oxobutan-2-yl]-5-cyclopropyl-4-(2-fluoroethoxy)pyridine-2-carboxamide]",–,–,0.0015,–,> 10
"CC(C)(C)C(NC(=O)c1cc(OCC(F)(F)F)c(Cl)cn1)c1nccs1 (stereo not drawn) [Example 38, 5-Chloro-4-(2,2,2-trifluoro-ethoxy)-pyridine-2-carboxylic acid (2,2-dimethyl-1-thiazol-2-yl-propyl)-amide]",0.0408,> 10,–,–,–
"Cc1nc(C(C)(CC2CC2)NC(=O)c2cc(O[C@@H](C)C(F)(F)F)c(C3(F)COC3)cn2)no1 (stereo partly drawn) [Example 142, N-[1-cyclopropyl-2-(5-methyl-1,2,4-oxadiazol-3-yl)propan-2-yl]-5-(3-fluorooxetan-3-yl)-4-[(2S)-1,1,1-trifluoropropan-2-yl]oxypyridine-2-carboxamide]",0.0041,> 10,–,–,–
"CC(C)(C)C(NC(=O)c1cc(OCC2CC2)c(N2CC(F)(F)C2)cn1)C(N)=O (single isomer, unassigned) [Example 261, N-[1-amino-3,3-dimethyl-1-oxobutan-2-yl]-4-(cyclopropylmethoxy)-5-(3,3-difluoroazetidin-1-yl)pyridine-2-carboxamide]",–,–,0.0211,–,> 10
"Cc1nnc(C(C)(CC2CC2)NC(=O)c2cc(OCC(F)(F)F)c(C3CC3)cn2)o1 (single isomer, unassigned) [Example 184, 5-cyclopropyl-N-[1-cyclopropyl-2-(5-methyl-1,3,4-oxadiazol-2-yl)propan-2-yl]-4-(2,2,2-trifluoroethoxy)pyridine-2-carboxamide]",–,–,0.0856,> 10,–
"Cc1nc(C(C)(CC(C)(C)C)NC(=O)c2cc(OCC(F)(F)F)c(Cl)cn2)no1 (stereo not drawn) [Example 83, 5-Chloro-4-(2,2,2-trifluoro-ethoxy)-pyridine-2-carboxylic acid [1,3,3-trimethyl-1-(5-methyl-[1,2,4]oxadiazol-3-yl)-butyl]-amide]",0.025,> 10,–,–,–
"CN(C)C(=O)CC1(NC(=O)c2cc(OCC(F)(F)F)c(Cl)cn2)COC1 [Example 85, 5-Chloro-4-(2,2,2-trifluoro-ethoxy)-pyridine-2-carboxylic acid (3-dimethylcarbamoylmethyl-oxetan-3-yl)-amide]",0.362,> 10,–,–,–
"Cn1nnnc1C(C)(CC1CC1)NC(=O)c1cc(OCC(F)(F)F)c(C2CC2)cn1 (stereo not drawn) [Example 151, 5-cyclopropyl-N-[1-cyclopropyl-2-(1-methyltetrazol-5-yl)propan-2-yl]-4-(2,2,2-trifluoroethoxy)pyridine-2-carboxamide]",0.0198,> 10,–,–,–
"Cc1nc([C@@](C)(NC(=O)c2cc(OCC(F)(F)F)c(Cl)cn2)C2CC2)no1 (single isomer, unassigned; enantiomer b) [Example 75, 5-Chloro-4-(2,2,2-trifluoro-ethoxy)-pyridine-2-carboxylic acid [1-cyclopropyl-1-(5-methyl-[1,2,4]oxadiazol-3-yl)-ethyl]-amide (enantiomer B)]",–,–,0.11,> 10,–
"Cc1cnc(C2(NC(=O)c3cc(OCC(F)(F)F)c(C4CC4)cn3)CCOCC2)s1 [Example 153, 5-cyclopropyl-N-[4-(5-methyl-1,3-thiazol-2-yl)oxan-4-yl]-4-(2,2,2-trifluoroethoxy)pyridine-2-carboxamide]",–,–,0.0407,> 10,–
"CC(C)(C)C(NC(=O)c1cc(OCC2CC2)c(N2CC(F)(F)C2)cn1)C(N)=O (single isomer, unassigned) [Example 260, N-[1-amino-3,3-dimethyl-1-oxobutan-2-yl]-4-(cyclopropylmethoxy)-5-(3,3-difluoroazetidin-1-yl)pyridine-2-carboxamide]",–,–,0.0209,> 10,–
"CC(CC(N)=O)(NC(=O)c1cc(OCC(F)F)c(C2CC2)cn1)C1CC1 (single isomer, unassigned) [Example 273, N-[4-amino-2-cyclopropyl-4-oxobutan-2-yl]-5-cyclopropyl-4-(2,2-difluoroethoxy)pyridine-2-carboxamide]",–,–,0.0017,–,> 10
"Cc1nc(C(C)(CO)NC(=O)c2cc(OCC(F)(F)F)c(C3CC3)cn2)no1 (single isomer, unassigned) [Example 140, 5-cyclopropyl-N-[1-hydroxy-2-(5-methyl-1,2,4-oxadiazol-3-yl)propan-2-yl]-4-(2,2,2-trifluoroethoxy)pyridine-2-carboxamide]",–,–,0.511,> 10,–
"Cc1nc(C(C)(NC(=O)c2cc(OCC(F)(F)F)c(C3CC3)cn2)C(=O)N(C)C)no1 (stereo not drawn) [Example 181, 5-cyclopropyl-N-[1-(dimethylamino)-2-(5-methyl-1,2,4-oxadiazol-3-yl)-1-oxopropan-2-yl]-4-(2,2,2-trifluoroethoxy)pyridine-2-carboxamide]",0.002,> 10,–,–,–
"CC(C)(CO)CNC(=O)c1cc(OCC2CC2)c(Cl)cn1 [Example 17, 5-Chloro-4-cyclopropylmethoxy-pyridine-2-carboxylic acid (3-hydroxy-2,2-dimethyl-propyl)-amide]",0.0473,> 10,–,–,–
"Cc1nc(C(C)(NC(=O)c2cc(OCC(F)(F)F)c(C3CC3)cn2)C2CC2)no1 (stereo not drawn) [Example 49, 5-Cyclopropyl-4-(2,2,2-trifluoro-ethoxy)-pyridine-2-carboxylic acid [1-cyclopropyl-1-(5-methyl-[1,2,4]oxadiazol-3-yl)-ethyl]-amide]",0.0017,> 10,–,–,–
"Cn1nnnc1C(NC(=O)c1cc(OCC(F)(F)F)c(C2CC2)cn1)C(C)(C)C (single isomer, unassigned) [Example 205, 5-cyclopropyl-N-[2,2-dimethyl-1-(1-methyltetrazol-5-yl)propyl]-4-(2,2,2-trifluoroethoxy)pyridine-2-carboxamide]",–,–,0.108,> 10,–
"Cc1nc(C(C)(CC2CC2)NC(=O)c2cc(O[C@@H](C)C(F)(F)F)c(C3(F)COC3)cn2)no1 (stereo partly drawn) [Example 170, N-[1-cyclopropyl-2-(5-methyl-1,2,4-oxadiazol-3-yl)propan-2-yl]-5-(3-fluorooxetan-3-yl)-4-[(2S)-1,1,1-trifluoropropan-2-yl]oxypyridine-2-carboxamide]",0.0254,> 10,–,–,–
"Cc1nnc(C(NC(=O)c2cc(OCC(F)(F)F)c(C3CC3)cn2)C(C)(C)C)o1 (single isomer, unassigned) [Example 178, 5-cyclopropyl-N-[2,2-dimethyl-1-(5-methyl-1,3,4-oxadiazol-2-yl)propyl]-4-(2,2,2-trifluoroethoxy)pyridine-2-carboxamide]",–,–,0.0105,> 10,–
"Cc1nc(C(C)(CC2CC2)NC(=O)c2cc(OCC(F)(F)F)c(C3CCC3)cn2)no1 (single isomer, unassigned) [Example 116, 5-cyclobutyl-N-[1-cyclopropyl-2-(5-methyl-1,2,4-oxadiazol-3-yl)propan-2-yl]-4-(2,2,2-trifluoroethoxy)pyridine-2-carboxamide]",–,–,0.0041,> 10,–
